What was measured:
[1] = biological target: Cyclin-dependent kinase 2 (Homo sapiens) (UniProt P24941); conditions: Compound concentration 1000.0 nM
[2] = biological target: Mitogen-activated protein kinase 13 (Homo sapiens) (UniProt O15264); conditions: Compound concentration 1000.0 nM
[3] = biological target: Serine/threonine-protein kinase B-raf (Homo sapiens) (UniProt P15056); conditions: Compound concentration 1000.0 nM
[4] = biological target: Phosphatidylinositol 3-kinase C2 domain-containing subunit gamma (Homo sapiens) (UniProt O75747); conditions: Compound concentration 1000.0 nM
[5] = biological target: Serine/threonine-protein kinase STK11 (Homo sapiens) (UniProt Q15831); conditions: Compound concentration 1000.0 nM
[6] = biological target: Tyrosine-protein kinase receptor UFO (Homo sapiens) (UniProt P30530); conditions: Compound concentration 1000.0 nM
[7] = biological target: T1, Muscarinic acetylcholine receptor M5 (Homo sapiens) (UniProt P08912); conditions: Compound concentration 10.0 uM
T1 sequence (whole entry): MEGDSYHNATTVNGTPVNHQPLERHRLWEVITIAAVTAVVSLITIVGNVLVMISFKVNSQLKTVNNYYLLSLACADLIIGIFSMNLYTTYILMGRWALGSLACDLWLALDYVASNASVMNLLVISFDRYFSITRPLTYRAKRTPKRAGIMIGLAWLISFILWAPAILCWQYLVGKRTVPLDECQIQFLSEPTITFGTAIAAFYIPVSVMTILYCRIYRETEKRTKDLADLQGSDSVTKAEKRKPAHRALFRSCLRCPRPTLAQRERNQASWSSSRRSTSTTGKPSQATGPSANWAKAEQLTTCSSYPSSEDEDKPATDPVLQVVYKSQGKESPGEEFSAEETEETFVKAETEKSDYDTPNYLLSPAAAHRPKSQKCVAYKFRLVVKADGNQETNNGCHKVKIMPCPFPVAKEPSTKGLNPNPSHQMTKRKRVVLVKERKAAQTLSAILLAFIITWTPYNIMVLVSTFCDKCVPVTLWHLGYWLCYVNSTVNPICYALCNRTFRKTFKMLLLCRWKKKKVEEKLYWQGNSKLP

[8] = biological target: Delta-type opioid receptor (Homo sapiens) (UniProt P41143); conditions: Compound concentration 10.0 uM
[9] = biological target: MAP kinase-activated protein kinase 2 (Homo sapiens) (UniProt P49137); conditions: Compound concentration 1000.0 nM
[10] = biological target: Mitogen-activated protein kinase kinase kinase 14 (Homo sapiens) (UniProt Q99558); conditions: Compound concentration 1000.0 nM
[11] = biological target: Serine/threonine-protein kinase WNK3 (Homo sapiens) (UniProt Q9BYP7); conditions: Compound concentration 1000.0 nM
[12] = biological target: Serine/threonine-protein kinase MARK1 (Homo sapiens) (UniProt Q9P0L2); conditions: Compound concentration 1000.0 nM
[13] = tested on: Mast/stem cell growth factor receptor Kit (Homo sapiens), P10721 [A829P]; conditions: Compound concentration 1000.0 nM
[14] = biological target: SRSF protein kinase 3 (Homo sapiens) (UniProt Q9UPE1); conditions: Compound concentration 1000.0 nM
[15] = biological target: Mast/stem cell growth factor receptor Kit (Homo sapiens) (UniProt P10721); conditions: Compound concentration 1000.0 nM
[16] = biological target: Histamine H3 receptor (Homo sapiens) (UniProt Q9Y5N1); conditions: Compound concentration 10.0 uM
[17] = biological target: Cyclin-dependent kinase 3 (Homo sapiens) (UniProt Q00526); conditions: Compound concentration 1000.0 nM
[18] = biological target: Serine/threonine-protein kinase PAK 2 (Homo sapiens) (UniProt Q13177); conditions: Compound concentration 1000.0 nM
[19] = biological target: Wee1-like protein kinase (Homo sapiens) (UniProt P30291); conditions: Compound concentration 1000.0 nM
[20] = biological target: Activated CDC42 kinase 1 (Homo sapiens) (UniProt Q07912); conditions: Compound concentration 1000.0 nM
[21] = biological target: Hormonally up-regulated neu tumor-associated kinase (Homo sapiens) (UniProt P57058); conditions: Compound concentration 1000.0 nM
[22] = biological target: Serine/threonine-protein kinase PLK4 (Homo sapiens) (UniProt O00444); conditions: Compound concentration 1000.0 nM
[23] = biological target: Tyrosine-protein kinase ABL1 (Homo sapiens) (UniProt P00519); conditions: Compound concentration 1000.0 nM
[24] = biological target: SRSF protein kinase 1 (Homo sapiens) (UniProt Q96SB4); conditions: Compound concentration 1000.0 nM
[25] = biological target: Tyrosine-protein kinase ABL2 (Homo sapiens) (UniProt P42684); conditions: Compound concentration 1000.0 nM
[26] = biological target: Myosin light chain kinase family member 4 (Homo sapiens) (UniProt Q86YV6); conditions: Compound concentration 1000.0 nM
[27] = biological target: Mitogen-activated protein kinase kinase kinase 6 (Homo sapiens) (UniProt O95382); conditions: Compound concentration 1000.0 nM
[28] = biological target: Dual specificity mitogen-activated protein kinase kinase 5 (Homo sapiens) (UniProt Q13163); conditions: Compound concentration 1000.0 nM
[29] = biological target: Fibroblast growth factor receptor 2 (Homo sapiens) (UniProt P21802); conditions: Compound concentration 1000.0 nM
[30] = biological target: Serine/threonine-protein kinase tousled-like 2 (Homo sapiens) (UniProt Q86UE8); conditions: Compound concentration 1000.0 nM
[31] = biological target: Aurora kinase C (Homo sapiens) (UniProt Q9UQB9); conditions: Compound concentration 1000.0 nM
[32] = biological target: Activin receptor type-2B (Homo sapiens) (UniProt Q13705); conditions: Compound concentration 1000.0 nM
[33] = biological target: 5-hydroxytryptamine receptor 2B (Homo sapiens) (UniProt P41595); conditions: Compound concentration 10.0 uM
[34] = tested on: Tyrosine-protein kinase ABL1 (Homo sapiens), P00519 [F317L]; conditions: Compound concentration 1000.0 nM
[35] = biological target: Serine/threonine-protein kinase pim-2 (Homo sapiens) (UniProt Q9P1W9); conditions: Compound concentration 1000.0 nM
[36] = biological target: Receptor tyrosine-protein kinase erbB-2 (Homo sapiens) (UniProt P04626); conditions: Compound concentration 1000.0 nM
[37] = biological target: Ribosomal protein S6 kinase alpha-4 (Homo sapiens) (UniProt O75676); conditions: Compound concentration 1000.0 nM
[38] = biological target: cGMP-dependent protein kinase 2 (Homo sapiens) (UniProt Q13237); conditions: Compound concentration 1000.0 nM

Chain of Phosphatidylinositol 3-kinase C2 domain-containing subunit gamma (Homo sapiens) (O75747 whole entry, the tested form may be a part): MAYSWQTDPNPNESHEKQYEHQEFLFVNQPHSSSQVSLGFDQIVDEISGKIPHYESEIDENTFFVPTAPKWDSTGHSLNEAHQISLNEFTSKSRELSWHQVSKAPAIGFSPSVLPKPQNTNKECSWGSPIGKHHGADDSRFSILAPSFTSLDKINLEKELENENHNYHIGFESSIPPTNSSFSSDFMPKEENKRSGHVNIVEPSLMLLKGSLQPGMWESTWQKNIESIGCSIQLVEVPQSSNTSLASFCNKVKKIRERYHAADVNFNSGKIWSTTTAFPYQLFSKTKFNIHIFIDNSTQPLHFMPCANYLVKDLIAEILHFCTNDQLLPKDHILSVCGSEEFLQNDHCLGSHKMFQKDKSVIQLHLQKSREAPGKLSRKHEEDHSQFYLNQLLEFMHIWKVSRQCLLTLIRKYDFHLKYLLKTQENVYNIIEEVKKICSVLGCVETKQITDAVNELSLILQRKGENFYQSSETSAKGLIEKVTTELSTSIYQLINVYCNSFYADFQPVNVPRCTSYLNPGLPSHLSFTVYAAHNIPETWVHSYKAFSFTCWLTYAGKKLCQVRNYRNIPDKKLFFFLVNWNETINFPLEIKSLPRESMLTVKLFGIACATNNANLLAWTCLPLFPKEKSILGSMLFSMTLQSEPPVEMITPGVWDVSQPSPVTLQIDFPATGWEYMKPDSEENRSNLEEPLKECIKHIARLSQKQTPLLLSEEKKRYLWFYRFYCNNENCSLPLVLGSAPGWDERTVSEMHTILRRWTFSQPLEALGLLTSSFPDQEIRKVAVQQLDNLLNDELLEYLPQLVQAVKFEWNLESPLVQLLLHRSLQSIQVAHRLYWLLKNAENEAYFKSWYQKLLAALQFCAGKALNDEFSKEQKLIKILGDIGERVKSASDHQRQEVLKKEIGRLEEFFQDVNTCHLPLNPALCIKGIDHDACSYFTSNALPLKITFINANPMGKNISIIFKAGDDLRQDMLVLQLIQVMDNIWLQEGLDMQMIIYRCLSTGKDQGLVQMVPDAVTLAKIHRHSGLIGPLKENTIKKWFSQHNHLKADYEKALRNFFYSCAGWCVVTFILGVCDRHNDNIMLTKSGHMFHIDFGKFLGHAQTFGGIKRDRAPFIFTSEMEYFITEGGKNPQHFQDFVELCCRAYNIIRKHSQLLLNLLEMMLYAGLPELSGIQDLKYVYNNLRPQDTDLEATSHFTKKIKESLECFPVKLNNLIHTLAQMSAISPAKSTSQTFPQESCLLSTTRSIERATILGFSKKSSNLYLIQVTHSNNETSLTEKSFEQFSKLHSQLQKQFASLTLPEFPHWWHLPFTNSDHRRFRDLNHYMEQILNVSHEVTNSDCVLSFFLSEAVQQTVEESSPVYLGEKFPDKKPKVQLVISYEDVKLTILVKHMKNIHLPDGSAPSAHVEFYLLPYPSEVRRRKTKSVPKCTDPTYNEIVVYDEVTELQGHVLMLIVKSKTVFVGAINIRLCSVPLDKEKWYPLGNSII
Chain of Serine/threonine-protein kinase pim-2 (Homo sapiens) (Q9P1W9 whole entry, looked up): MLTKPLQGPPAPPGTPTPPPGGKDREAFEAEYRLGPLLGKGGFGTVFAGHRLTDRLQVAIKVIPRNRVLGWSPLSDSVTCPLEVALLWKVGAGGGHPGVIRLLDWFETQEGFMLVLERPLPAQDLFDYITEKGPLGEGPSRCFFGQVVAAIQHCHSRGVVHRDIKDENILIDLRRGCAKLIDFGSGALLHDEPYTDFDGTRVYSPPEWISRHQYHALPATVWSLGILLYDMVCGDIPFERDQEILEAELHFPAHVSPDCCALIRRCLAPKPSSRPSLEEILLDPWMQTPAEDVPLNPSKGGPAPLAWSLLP
Chain of Serine/threonine-protein kinase MARK1 (Homo sapiens) (Q9P0L2 whole entry, looked up): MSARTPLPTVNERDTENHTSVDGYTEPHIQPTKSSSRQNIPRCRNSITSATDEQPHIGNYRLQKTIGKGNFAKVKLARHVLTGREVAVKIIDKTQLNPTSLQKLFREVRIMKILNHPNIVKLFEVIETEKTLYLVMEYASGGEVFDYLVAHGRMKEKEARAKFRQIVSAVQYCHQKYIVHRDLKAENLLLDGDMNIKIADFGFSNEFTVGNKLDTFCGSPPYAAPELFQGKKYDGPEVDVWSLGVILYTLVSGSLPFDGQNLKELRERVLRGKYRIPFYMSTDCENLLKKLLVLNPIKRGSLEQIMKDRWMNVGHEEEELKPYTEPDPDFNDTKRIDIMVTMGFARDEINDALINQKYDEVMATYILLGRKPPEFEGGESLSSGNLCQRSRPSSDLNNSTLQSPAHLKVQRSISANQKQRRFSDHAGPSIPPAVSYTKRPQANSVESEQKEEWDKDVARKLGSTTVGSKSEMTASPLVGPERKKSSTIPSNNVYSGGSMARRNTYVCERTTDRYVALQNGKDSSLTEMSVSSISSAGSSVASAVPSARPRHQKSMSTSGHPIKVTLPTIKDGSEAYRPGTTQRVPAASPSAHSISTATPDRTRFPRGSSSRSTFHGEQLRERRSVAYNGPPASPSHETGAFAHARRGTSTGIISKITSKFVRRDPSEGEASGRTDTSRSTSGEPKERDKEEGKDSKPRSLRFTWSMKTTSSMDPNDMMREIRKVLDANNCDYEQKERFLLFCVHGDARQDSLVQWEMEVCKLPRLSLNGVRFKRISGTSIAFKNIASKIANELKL
Chain of Fibroblast growth factor receptor 2 (Homo sapiens) (P21802 22-821 limits assumed): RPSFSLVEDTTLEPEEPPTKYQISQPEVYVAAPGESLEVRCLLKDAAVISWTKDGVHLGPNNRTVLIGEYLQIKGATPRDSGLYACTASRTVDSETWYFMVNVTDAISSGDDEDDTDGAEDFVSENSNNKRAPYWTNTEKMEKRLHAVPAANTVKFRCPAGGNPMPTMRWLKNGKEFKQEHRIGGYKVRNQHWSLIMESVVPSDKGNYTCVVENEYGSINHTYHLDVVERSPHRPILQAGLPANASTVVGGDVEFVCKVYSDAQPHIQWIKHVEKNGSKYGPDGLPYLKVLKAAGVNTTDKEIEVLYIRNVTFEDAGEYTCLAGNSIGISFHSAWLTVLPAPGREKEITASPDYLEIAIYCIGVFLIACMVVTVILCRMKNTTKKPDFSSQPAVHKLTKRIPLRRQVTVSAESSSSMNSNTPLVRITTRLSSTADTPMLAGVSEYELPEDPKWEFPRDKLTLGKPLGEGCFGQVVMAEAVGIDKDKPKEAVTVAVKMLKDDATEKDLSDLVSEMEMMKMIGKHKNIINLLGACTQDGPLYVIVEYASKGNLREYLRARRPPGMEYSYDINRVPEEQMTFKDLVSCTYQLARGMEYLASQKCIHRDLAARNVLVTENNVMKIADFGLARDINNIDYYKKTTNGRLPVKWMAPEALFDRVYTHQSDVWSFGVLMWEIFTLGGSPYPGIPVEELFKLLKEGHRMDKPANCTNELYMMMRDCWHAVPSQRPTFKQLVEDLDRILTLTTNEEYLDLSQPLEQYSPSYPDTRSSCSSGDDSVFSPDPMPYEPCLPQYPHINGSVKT
Chain of Myosin light chain kinase family member 4 (Homo sapiens) (Q86YV6 whole entry): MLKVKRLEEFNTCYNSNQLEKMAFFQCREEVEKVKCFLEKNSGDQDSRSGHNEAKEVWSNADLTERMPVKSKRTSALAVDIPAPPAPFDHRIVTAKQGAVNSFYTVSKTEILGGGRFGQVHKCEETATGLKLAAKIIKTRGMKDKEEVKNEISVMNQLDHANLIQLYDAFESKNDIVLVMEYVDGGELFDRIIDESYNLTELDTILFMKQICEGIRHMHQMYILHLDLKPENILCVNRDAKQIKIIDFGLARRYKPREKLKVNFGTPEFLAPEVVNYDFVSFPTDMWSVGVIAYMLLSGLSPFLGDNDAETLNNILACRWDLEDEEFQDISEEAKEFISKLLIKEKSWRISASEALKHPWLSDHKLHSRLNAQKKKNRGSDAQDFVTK
Chain of Histamine H3 receptor (Homo sapiens) (Q9Y5N1 whole entry): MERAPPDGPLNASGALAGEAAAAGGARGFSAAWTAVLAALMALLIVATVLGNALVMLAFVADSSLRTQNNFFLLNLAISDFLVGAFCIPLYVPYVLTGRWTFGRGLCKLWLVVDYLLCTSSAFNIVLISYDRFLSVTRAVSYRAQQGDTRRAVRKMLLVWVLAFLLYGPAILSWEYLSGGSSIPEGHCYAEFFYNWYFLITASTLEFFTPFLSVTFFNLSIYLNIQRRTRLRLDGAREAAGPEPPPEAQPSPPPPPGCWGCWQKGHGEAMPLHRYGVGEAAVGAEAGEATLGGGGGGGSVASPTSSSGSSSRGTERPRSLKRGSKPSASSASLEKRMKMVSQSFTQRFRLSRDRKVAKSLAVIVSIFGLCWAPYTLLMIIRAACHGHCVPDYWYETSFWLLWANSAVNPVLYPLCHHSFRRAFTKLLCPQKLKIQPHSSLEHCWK
Chain of Mitogen-activated protein kinase 13 (Homo sapiens) (O15264 whole entry): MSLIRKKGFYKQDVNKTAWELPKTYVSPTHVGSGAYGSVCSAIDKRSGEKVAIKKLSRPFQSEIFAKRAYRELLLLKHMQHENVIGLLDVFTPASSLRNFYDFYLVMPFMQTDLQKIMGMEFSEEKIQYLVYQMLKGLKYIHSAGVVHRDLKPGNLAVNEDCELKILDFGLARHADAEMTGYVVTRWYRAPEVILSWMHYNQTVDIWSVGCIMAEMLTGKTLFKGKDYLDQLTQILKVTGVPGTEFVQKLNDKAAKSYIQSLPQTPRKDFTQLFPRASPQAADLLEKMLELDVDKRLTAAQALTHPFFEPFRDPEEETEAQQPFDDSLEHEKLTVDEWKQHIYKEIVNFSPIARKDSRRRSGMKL
Chain of Delta-type opioid receptor (Homo sapiens) (P41143 whole entry): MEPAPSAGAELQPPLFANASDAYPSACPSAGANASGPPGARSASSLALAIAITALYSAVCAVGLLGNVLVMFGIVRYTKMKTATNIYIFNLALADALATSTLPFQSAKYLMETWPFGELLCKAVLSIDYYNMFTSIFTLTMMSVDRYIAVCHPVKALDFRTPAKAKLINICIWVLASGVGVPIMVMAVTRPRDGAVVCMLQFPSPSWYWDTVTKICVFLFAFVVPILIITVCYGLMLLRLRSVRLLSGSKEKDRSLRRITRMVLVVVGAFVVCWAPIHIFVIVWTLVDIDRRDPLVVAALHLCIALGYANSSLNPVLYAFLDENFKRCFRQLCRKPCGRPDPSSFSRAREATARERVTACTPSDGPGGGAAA

Cn1cncc1[C@@](O)(COc1ccc(C#N)cc1-c1ccc(OC(F)(F)F)cc1)c1ccc(C#N)cc1 [A-108]
inactive: residual activity [1] 89% | residual activity [2] 90% | residual activity [3] 100% | residual activity [4] 61% | residual activity [5] 100% | residual activity [6] 100% | inhibition [7] 1.23% | inhibition [8] 2.4% | residual activity [9] 61% | residual activity [10] 92% | residual activity [11] 100% | residual activity [12] 100% | residual activity [13] 100% | residual activity [14] 56% | residual activity [15] 98% | inhibition [16] 17.8% | residual activity [17] 100% | residual activity [18] 96% | residual activity [19] 100% | residual activity [20] 100% | residual activity [21] 100% | residual activity [22] 84% | residual activity [23] 96% | residual activity [24] 97% | residual activity [25] 100% | residual activity [26] 97% | residual activity [27] 100% | residual activity [28] 88% | residual activity [29] 100% | residual activity [30] 97% | residual activity [31] 90% | residual activity [32] 100% | inhibition [33] 18.6% | residual activity [34] 100% | residual activity [35] 100% | residual activity [36] 94% | residual activity [37] 93% | residual activity [38] 87%

Cn1cncc1[C@](O)(COc1ccc(C#N)cc1-c1ccc(OC(F)(F)F)cc1)c1ccc(C#N)cc1 [ABT-100]
inactive: residual activity [1] 95% | residual activity [2] 87% | residual activity [3] 84% | residual activity [4] 81% | residual activity [5] 71% | residual activity [6] 100% | inhibition [7] -4.82% | inhibition [8] -0.182% | residual activity [9] 63% | residual activity [10] 88% | residual activity [11] 100% | residual activity [12] 57% | residual activity [13] 79% | residual activity [14] 53% | residual activity [15] 100% | inhibition [16] 5.92% | residual activity [17] 71% | residual activity [18] 93% | residual activity [19] 100% | residual activity [20] 100% | residual activity [21] 68% | residual activity [22] 94% | residual activity [23] 100% | residual activity [24] 70% | residual activity [25] 83% | residual activity [26] 93% | residual activity [27] 76% | residual activity [28] 83% | residual activity [29] 86% | residual activity [30] 100% | residual activity [31] 100% | residual activity [32] 100% | inhibition [33] -5.75% | residual activity [34] 100% | residual activity [35] 84% | residual activity [36] 100% | residual activity [37] 76% | residual activity [38] 100%
